Experimental data: patent US10150760B2, “Compounds for use in preparing heterocyclic triazole agonists of the APJ receptor” (AMGEN INC., priority 2016, dated 2018)

Molecular target: human APJ receptor (Homo sapiens (Human), UniProt P35414)
Experiment: [35S]GTPγS binding assay on membranes from CHO cells stably expressing human APJ receptor
Assay type: biochemical
Details: read-out: Activity hAPJ SPA EC50 IP
How it was run: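 Membranes from CHO cells stably expressing human APJ incubated with ligand, 0.2 nM [35S]GTPγS and WGA SPA beads in HEPES pH 7.5 with 5 mM MgCl2, 200 mM NaCl, 3 μM GDP, 90 min at RT. Nonspecific binding defined with 100 μM GTPγS; EC50 by non-linear regression.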

human APJ receptor, sequence (P35414 whole entry): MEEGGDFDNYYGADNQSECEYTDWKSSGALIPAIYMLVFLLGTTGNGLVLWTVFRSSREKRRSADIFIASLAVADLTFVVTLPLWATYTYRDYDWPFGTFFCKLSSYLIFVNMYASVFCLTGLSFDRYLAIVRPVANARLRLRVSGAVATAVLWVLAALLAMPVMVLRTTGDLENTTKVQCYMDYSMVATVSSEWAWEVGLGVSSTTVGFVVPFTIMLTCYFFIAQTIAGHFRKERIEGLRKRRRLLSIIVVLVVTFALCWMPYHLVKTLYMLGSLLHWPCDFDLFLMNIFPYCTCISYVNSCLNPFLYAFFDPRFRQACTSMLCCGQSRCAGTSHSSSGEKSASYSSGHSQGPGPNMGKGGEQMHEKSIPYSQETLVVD

Row | Compound | EC50 [nM]
1 | CO[C@H](c1ncc(Cl)cn1)[C@H](C)S(=O)(=O)Nc1nnc([C@H]2CCOC2)n1Cc1ccon1 (single isomer, unassigned) [Example 401.0, (1R,2S)-1-(5-chloro-2-pyrimidinyl)-1-methoxy-N-(4-(1,2-oxazol-3-ylmethyl)-5-((3R)-tetrahydro-3-furanyl)-4H-1,2,4-triazol-3-yl)-2-propanesulfonamide or (1R,2S)-1-(5-chloro-2-pyrimidinyl)-1-methoxy-N-(4-(1,2-oxazol-3-ylmethyl)-5-((3S)-tetrahydro-3-furanyl)-4H-1,2,4-triazol-3-yl)-2-propanesulfonamide] | 100
2 | CO[C@H](c1ncc(Cl)cn1)[C@H](C)S(=O)(=O)Nc1nnc([C@H]2CCOC2)n1Cc1ccon1 (single isomer, unassigned) [Example 402.0, (1R,2S)-1-(5-chloro-2-pyrimidinyl)-1-methoxy-N-(4-(1,2-oxazol-3-ylmethyl)-5-((3R)-tetrahydro-3-furanyl)-4H-1,2,4-triazol-3-yl)-2-propanesulfonamide or (1R,2S)-1-(5-chloro-2-pyrimidinyl)-1-methoxy-N-(4-(1,2-oxazol-3-ylmethyl)-5-((3S)-tetrahydro-3-furanyl)-4H-1,2,4-triazol-3-yl)-2-propanesulfonamide] | 410
3 | CO[C@H](c1ncc(Cl)cn1)[C@H](C)S(=O)(=O)Nc1nnc([C@@H]2CC[C@H](C)O2)n1Cc1ccon1 (single isomer, unassigned) [Example 403.0, (1R,2S)-1-(5-chloro-2-pyrimidinyl)-1-methoxy-N-(5-((2S,5S)-5-methyltetrahydro-2-furanyl)-4-(1,2-oxazol-3-ylmethyl)-4H-1,2,4-triazol-3-yl)-2-propanesulfonamide or (1R,2S)-1-(5-chloro-2-pyrimidinyl)-1-methoxy-N-(5-((2R,5R)-5-methyltetrahydro-2-furanyl)-4-(1,2-oxazol-3-ylmethyl)-4H-1,2,4-triazol-3-yl)-2-propanesulfonamide] | 280
4 | CO[C@H](c1ncc(Cl)cn1)[C@H](C)S(=O)(=O)Nc1nnc([C@@H]2CC[C@H](C)O2)n1Cc1ccon1 (single isomer, unassigned) [Example 404.0, (1R,2S)-1-(5-chloro-2-pyrimidinyl)-1-methoxy-N-(5-((2S,5S)-5-methyltetrahydro-2-furanyl)-4-(1,2-oxazol-3-ylmethyl)-4H-1,2,4-triazol-3-yl)-2-propanesulfonamide or (1R,2S)-1-(5-chloro-2-pyrimidinyl)-1-methoxy-N-(5-((2R,5R)-5-methyltetrahydro-2-furanyl)-4-(1,2-oxazol-3-ylmethyl)-4H-1,2,4-triazol-3-yl)-2-propanesulfonamide] | 81
5 | COc1cccc(OC)c1-n1c(NS(=O)(=O)[C@@H](C)[C@H](OC)c2ncc(Cl)cn2)nnc1[C@H]1CCC(=O)N1C (single isomer, unassigned) [Example 405.0, (1R,2S)-1-(5-chloropyrimidin-2-yl)-N-(4-(2,6-dimethoxyphenyl)-5-((R)-1-methyl-5-oxopyrrolidin-2-yl)-4H-1,2,4-triazol-3-yl)-1-methoxypropane-2-sulfonamide or (1R,2S)-1-(5-chloropyrimidin-2-yl)-N-(4-(2,6-dimethoxyphenyl)-5-((S)-1-methyl-5-oxopyrrolidin-2-yl)-4H-1,2,4-triazol-3-yl)-1-methoxypropane-2-sulfonamide] | 1720
6 | COc1cccc(OC)c1-n1c(NS(=O)(=O)[C@@H](C)[C@H](OC)c2ncc(Cl)cn2)nnc1[C@H]1CCC(=O)N1C (single isomer, unassigned) [Example 406.0, (1R,2S)-1-(5-chloropyrimidin-2-yl)-N-(4-(2,6-dimethoxyphenyl)-5-((R)-1-methyl-5-oxopyrrolidin-2-yl)-4H-1,2,4-triazol-3-yl)-1-methoxypropane-2-sulfonamide or (1R,2S)-1-(5-chloropyrimidin-2-yl)-N-(4-(2,6-dimethoxyphenyl)-5-((S)-1-methyl-5-oxopyrrolidin-2-yl)-4H-1,2,4-triazol-3-yl)-1-methoxypropane-2-sulfonamide] | 1080
7 | COc1cccc(OC)c1-n1c(NS(=O)(=O)[C@@H](C)[C@@H](OC(C)C)c2ccc(C)cn2)nnc1[C@H]1CCOC1 (single isomer, unassigned) [Example 408.0, (1S,2S)-N-(4-(2,6-dimethoxyphenyl)-5-((3R)-tetrahydro-3-furanyl)-4H-1,2,4-triazol-3-yl)-1-(5-methyl-2-pyridinyl)-1-(2-propanyloxy)-2-propanesulfonamide or (1S,2S)-N-(4-(2,6-dimethoxyphenyl)-5-((3S)-tetrahydro-3-furanyl)-4H-1,2,4-triazol-3-yl)-1-(5-methyl-2-pyridinyl)-1-(2-propanyloxy)-2-propanesulfonamide] | 64
8 | COc1cccc(OC)c1-n1c(NS(=O)(=O)[C@@H](C)[C@H](C)c2ccc(Cl)cn2)nnc1C1CCOC1 (single isomer, unassigned) [Example 409.0] | 11
9 | COc1cccc(OC)c1-n1c(NS(=O)(=O)[C@@H](C)[C@H](C)c2ccc(Cl)cn2)nnc1C1CCOC1 (single isomer, unassigned) [Example 410.0] | 19
10 | COc1cccc(OC)c1-n1c(NS(=O)(=O)[C@@H](C)[C@@H](OC(C)C)c2ncc(C)cn2)nnc1[C@@H]1COC(C)(C)C1 (single isomer, unassigned) [Example 411.0, (1S,2S)-N-(4-(2,6-dimethoxyphenyl)-5-((3R)-5,5-dimethyltetrahydro-3-furanyl)-4H-1,2,4-triazol-3-yl)-1-(5-methyl-2-pyrimidinyl)-1-(2-propanyloxy)-2-propanesulfonamide or (1S,2S)-N-(4-(2,6-dimethoxyphenyl)-5-((3S)-5,5-dimethyltetrahydro-3-furanyl)-4H-1,2,4-triazol-3-yl)-1-(5-methyl-2-pyrimidinyl)-1-(2-propanyloxy)-2-propanesulfonamide] | 86
11 | COc1cccc(OC)c1-n1c(NS(=O)(=O)[C@@H](C)[C@@H](OC(C)C)c2ncc(C)cn2)nnc1[C@@H]1COC(C)(C)C1 (single isomer, unassigned) [Example 412.0, (1S,2S)-N-(4-(2,6-dimethoxyphenyl)-5-((3R)-5,5-dimethyltetrahydro-3-furanyl)-4H-1,2,4-triazol-3-yl)-1-(5-methyl-2-pyrimidinyl)-1-(2-propanyloxy)-2-propanesulfonamide or (1S,2S)-N-(4-(2,6-dimethoxyphenyl)-5-((3S)-5,5-dimethyltetrahydro-3-furanyl)-4H-1,2,4-triazol-3-yl)-1-(5-methyl-2-pyrimidinyl)-1-(2-propanyloxy)-2-propanesulfonamide] | 40
12 | COc1cccc(OC)c1-n1c(NS(=O)(=O)[C@@H](C)[C@@H](OC(C)C)c2ncc(Cl)cn2)nnc1[C@H]1CCC(C)(C)O1 (single isomer, unassigned) [Example 413.0, (1S,2S)-1-(5-chloro-2-pyrimidinyl)-N-(4-(2,6-dimethoxyphenyl)-5-((2R)-5,5-dimethyltetrahydro-2-furanyl)-4H-1,2,4-triazol-3-yl)-1-(2-propanyloxy)-2-propanesulfonamide or (1S,2S)-1-(5-chloro-2-pyrimidinyl)-N-(4-(2,6-dimethoxyphenyl)-5-((2S)-5,5-dimethyltetrahydro-2-furanyl)-4H-1,2,4-triazol-3-yl)-1-(2-propanyloxy)-2-propanesulfonamide] | 7.4
